Experiment [1] has as its system Pseudopestalotiopsis theae. Description: Fungicidal activity against Pestalotiopsis theae infested tea plant in nursery assessed as reduction in plant casuality at 5 % sprayed on topsoil measured after 90 days. It is filed as functional, organism-based.
Experiment [2] has as its system Pseudopestalotiopsis theae. Description: Fungicidal activity against Pestalotiopsis theae infested tea plant in nursery assessed as reduction in plant casuality at 0.05 % sprayed on topsoil measured after 90 days (reference value: 58 %). It is filed as functional. Further details: scale not given: the % may be the effect or the level left.
Experiment [3] has as its system Pseudopestalotiopsis theae. In words: Fungicidal activity against grey blight disease-causing Pestalotiopsis theae infested tea plantation assessed as green leaf yield which made tea at 0.05 % applied as foliar spray (reference value: 2884 kg/ha ). The experiment is classed as functional.
Experiment [4] concerns Pseudopestalotiopsis theae. Description: Fungicidal activity against grey blight disease-causing Pestalotiopsis theae infested tea plantation assessed as disease incidence at 0.05 % applied as foliar spray (reference value: 39.2 %). The experiment is classed as functional.
The subject of experiment [5] is Pseudopestalotiopsis theae. In words: Fungicidal activity against grey blight disease-causing Pestalotiopsis theae infested tea plantation assessed as green leaf yield which made tea compound applied on shears during hravesting (reference value: 3044 kg/ha). It is filed as functional.
Experiment [6] concerns Pseudopestalotiopsis theae. Description: Fungicidal activity against grey blight disease-causing Pestalotiopsis theae infested tea plantation assessed as disease incidence compound applied on shears during hravesting (reference value: 47 %). The experiment is classed as functional.
Experiment [7] has as its system Pseudopestalotiopsis theae. In words: Fungicidal activity against Pestalotiopsis theae infested tea plant in nursery assessed as reduction in plant casuality at 3 % sprayed on topsoil measured after 90 days. It is filed as functional, organism-based.

Data on 2 compounds can be found in ChEMBL document CHEMBL3045161, “Evaluation of fungicides and biocontrol agents against grey blight disease of tea in the field” (2008).

Active and inactive are the calls of the source. The rule behind the calls is not given here.

In the case of `COC(=O)Nc1nc2ccccc2[nH]1` [CARBENDAZIM], in experiment [1], the result was Active. Besides, the Activity in experiment [2] is listed as 5%; in experiment [4], 6.6%. The Crop_yield in experiment [3] is 3845 kg/ha.
As to `COC(=O)NC(=S)Nc1ccccc1NC(=S)NC(=O)OC` [THIOPHANATE METHYL], the Crop_yield came out at 3457 kg/ha in experiment [5] and 3886 kg/ha in experiment [3]. The Activity is 17.5% in experiment [6], 3% in experiment [2] and 5.6% in experiment [4]. In addition, the outcome in experiment [7] was Active.
